In the NIST ThermoML archive (doi:10.1016/j.jct.2016.09.014):

Assay: mn = molality of the nth substance listed, in mol/kg
Settings: 298.15 K, 101.3 kPa, Liquid; for binary diffusion coefficient: Taylor dispersion method; for mass density: Vibrating tube method

NCCCC(=O)O [4-aminobutanoic acid] + O
Settings	binary diffusion coefficient [m2/s]	mass density [kg/m3]
m1 = 0.001003	7.8e-10	–
m1 = 0.00106	–	997.083
m1 = 0.00258	–	997.127
m1 = 0.00467	–	997.199
m1 = 0.005016	7.79e-10	–
m1 = 0.00517	–	997.203
m1 = 0.00833	–	997.308
m1 = 0.01004	7.78e-10	–
m1 = 0.01088	–	997.389
m1 = 0.01968	–	997.658
m1 = 0.02009	7.77e-10	–
m1 = 0.03015	7.76e-10	–
m1 = 0.03823	–	998.069
m1 = 0.05033	7.72e-10	–
m1 = 0.05427	–	998.687
m1 = 0.06297	–	998.944
m1 = 0.07297	–	999.113
m1 = 0.101	7.65e-10	–
m1 = 0.1017	–	1000.1
